Experimental data taken from US20250360091A1, “COMBINATION OF SGLT2 INHIBITOR AND MENTHOL AND USE THEREOF IN TREATMENT OF HEART DISEASE” (EAST CHINA UNIVERSITY OF SCIENCE AND TECHNOLOGY, priority 2023, published 2025).

Assays:
[1] = tested on: Rat myocardial cells (H9c2); assay: Glucose deprivation (GD)-induced myocardial cell injury model, cck8 cell survival, checkerboard (Example 1); format: cell-based; conditions: empagliflozin used alone; GD 36-48 h
Description: In this example, a glucose deprivation (GD)-induced myocardial cell injury model was used to evaluate the protective effect of the drug composition on myocardial cells. Rat myocardial cells (H9c2) were purchased from the stem cell bank of the Chinese Academy of Sciences. Myocardial cells were cultured in high-glucose DMEM (containing 10% fetal bovine serum, 1% penicillin/streptomycin) culture medium and placed in an incubator at 37° C. and 5% CO2. After the myocardial cells basically covered the cell culture dish (10 cm), the cells were digested with trypsin and planted in a 96-well plate at a cell density of 8000 cells/well, 100 μL per well. When the cells covered the bottom of the dish, the DMEM culture medium was removed and the plate was washed once with PBS. The compound was diluted to the target concentration with sugar-free and serum-free DMEM, added to the plate, and treated with GD. […] The cell survival rates of empagliflozin (EMPA) 0-100 μM, L-menthol (MEN) 0-200 μM and combined concentrations were tested, and the cell survival rates of single drugs and combined drugs were input into CompuSyn (http://www.combosyn.com) to calculate the synergistic coefficient.

[2] = tested on: TAC-induced heart failure model; assay: Transverse aortic constriction (TAC)-induced heart failure model (Example 4); format: in vivo, C57/6J male mice
Description: The transverse aortic constriction (TAC) model is the most commonly used disease model of chronic ventricular hypertrophy, which is used to simulate hypertrophic cardiomyopathy, heart failure, and hypertensive heart disease caused by hypertension or increased intraventricular pressure.
Nine-week-old C57/6J male mice were divided into five groups (sham group, TAC group, 30 mg/kg cmpagliflozin group (E30), 10 mg/kg empagliflozin+15 mg/kg menthol group (E10+M15), and 30 mg/kg empagliflozin+45 mg/kg menthol group (E30+M45)).
Experimental process of aortic arch constriction surgery: hair was removed from the surgical area from the neck to the anterior chest of the experimental mouse, and the surgical area was disinfected with iodine. The neck and chest were opened in the midline, the muscles were bluntly separated, the incision was retracted with retractors, the thymus was dissected, and the aortic arch was exposed. The innominate artery, left common carotid artery, and left subclavian artery were found along the aortic arch. The thread was passed between the right innominate artery and the left common carotid artery, and the constriction needle was paced parallel to the aortic arch and then the thread was tied a knot. After tightening the thread, the constriction needle was slowly withdrawn, that is, quantitative constriction was formed in the aortic arch. The chest cavity was closed, the skin on the neck and chest was sutured and disinfected with iodine. Two weeks after the operation, after confirming the hypertrophy of the heart through cardiac function test, drug administration started, and continued for 4 weeks. The drug administration group was gavaged once a day in the morning, and the sham group and TAC group were gavaged with the same amount of drinking water every morning.
The survival of mice was recorded during the experiment. After 4 weeks of continuous administration, the exercise tolerance of experimental mice was evaluated by rotarod test, suspension test and grip strength test. The rotarod test evaluated the maximum tolerance time of mice at a speed of 35 rpm, the suspension test evaluated the maximum tolerance time of mice forearm suspension, and the grip strength test evaluated the maximum grip strength of mice forepaws. […] After the experiment, the mice were euthanized, the hearts were weighed, the heart-body weight ratio was calculated, and then the hearts were fixed, paraffin-embedded, sliced, and Masson-stained. ImageJ was used to quantify the fibrosis area and calculate the degree of cardiac fibrosis. Graph Pad software was used for data processing and significant differences were calculated (OneWayANOVA was used between multiple groups, and Student's t test was used between two groups).

[3] = tested on: ISO-induced heart failure model; assay: Isoproterenol-induced heart failure model (Example 3); format: in vivo, C57/6J male mice; conditions: for cardiac function (ejection fraction, fractional shortening, echocardiography): gavage daily, day 15
Description: Isoproterenol hydrochloride is a commonly used inducer for establishing a heart failure model. Subcutaneous injection of isoproterenol hydrochloride can accelerate the heart rate of mice, cause the myocardium to continue to contract strongly, increase myocardial oxygen consumption, increase the heart load, and eventually cause heart failure.
Preferably, 50 µM of empagliflozin and 200 μM of menthol were converted into a mass ratio of about 1:1.5 according to the molar molecular weight. The dose of empagliflozin was set at 10 mg/kg and 30 mg/kg, and the pharmaceutical composition was set as the 10 mg/kg empagliflozin+15 mg/kg menthol group. In addition, in order to determine the extent to which the combination of menthol can reduce the effective dose of empagliflozin, a combination of menthol at a dose of 15 mg/kg and empagliflozin at a dose of 5 mg/kg was administered, resulting in the empagliflozin 5 mg/kg+menthol 15 mg/kg group.
Specifically, C57/6J male mice with an average body weight of about 21-22 g were divided into 7 groups (sham group, ISO group, empagliflozin 30 mg/kg group (E30), empagliflozin 10 mg/kg group (E10), menthol 15 mg/kg group (M15), empagliflozin 10 mg/kg+menthol 15 mg/kg group (E10+M15), empagliflozin 5 mg/kg+menthol 15 mg/kg group (E5+M15)), with 8 mice in each group. The mice were given drugs by gavage every morning, and the solvent was DMSO (the content was less than 5%, and menthol and empagliflozin solution were mixed in equal volumes and then gavaged into the mice). The sham group and ISO group were gavaged with an equal amount of drinking water every morning.
Isoproterenol hydrochloride was injected subcutaneously twice a day, in the morning and evening, with a dose of 40 mg/kg on days 1-2, 20 mg/kg on days 3-7, and 10 mg/kg on days 8-14. […]
On the 15th day, the Visual-Sonics Vevo 3100 small animal high-resolution micro-ultrasound imaging system was used to evaluate the cardiac structure and function of the experimental mice in each group. Three cardiac cycles were taken to measure the systolic interventricular septum thickness (IVSs), diastolic interventricular septum thickness (IVSd), left ventricular systolic inner diameter (LVIDs), left ventricular diastolic inner diameter (LVIDd), systolic left ventricular posterior wall thickness (LVPWs), and diastolic left ventricular posterior wall thickness (LVPWd), and the ejection fraction (EF, %) and fractional shortening (FS, %) were calculated. […] ImageJ was used to quantify the fibrosis area and calculate the degree of cardiac fibrosis. Graph Pad software was used for data processing and significant differences were calculated (OneWayANOVA was used between multiple groups, and Student's t test was used between two groups).

SMILES | effective concentration of empagliflozin (cell survival) [1] [µM] | myocardial hypertrophy (heart weight to body weight ratio) ([2]; EMPA 30 mg/kg, 4 weeks) | mouse deaths during the experiment (survival) ([2]; EMPA 30 mg/kg, gavage once daily for 4 weeks) | cardiac function (ejection fraction, fractional shortening, LV diameters) ([2]; empagliflozin 30 mg/kg, 4 weeks) | exercise tolerance (grip strength, rotarod, forearm suspension) ([2]; empagliflozin alone 30 mg/kg, 4 weeks) | cardiac function (ejection fraction, fractional shortening, echocardiography) ([3]; empagliflozin 10 mg/kg) | myocardial fibrosis (Masson staining area) ([3]; empagliflozin 30 mg/kg) | cardiac function (ejection fraction, fractional shortening, echocardiography) ([3]; empagliflozin 30 mg/kg) | cardiac function (ejection fraction, fractional shortening, echocardiography) ([3]; menthol 15 mg/kg)
OC[C@H]1O[C@@H](c2ccc(Cl)c(Cc3ccc(O[C@H]4CCOC4)cc3)c2)[C@H](O)[C@@H](O)[C@@H]1O [empagliflozin] | 50 | significantly improves myocardial hypertrophy | one mouse died | significantly improves TAC-induced cardiac dysfunction | cannot improve the exercise tolerance | cannot significantly improve the cardiac function | significantly reduce myocardial fibrosis | can effectively improve | 
CC(C)[C@@H]1CC[C@@H](C)C[C@H]1O [menthol, L-menthol] |  |  |  |  |  |  |  |  | slightly improved the cardiac function of mice with heart failure at a dose of 15 mg/kg, but there is no significant difference
